US10632124B2, “Adrenoceptors antagonists for the prevention and treatment of neurodegenerative conditions” (Cedars-Sinai Medical Center, priority 2013, dated 2020)

Assays:
[1] = tested on: patients with a diagnosis of iPD; test: Retrospective cross-sectional medical record analysis of 333 iPD patients: constipation; format: in vivo, human; conditions: for Constipation, % of patients / No Constipation, % of patients: by dopaminergic treatment
Source text: The inventors conducted a retrospective, cross-sectional medical record analysis of 333 consecutive patients with a diagnosis of iPD seen in the Movement Disorders clinic of Cedars-Sinai Medical Center from October 2010 to March 2014. Demographic and clinical data, including vitals, motor and non-motor symptoms, dopaminergic medications, comorbidities and anti-hypertensive medications were collected at the initial consultation visit. All data were collected in an Excel database and analyzed by SPSS version 19.0 (SPSS, Inc., Chicago, Ill.). Continuous variables were expressed as mean±standard deviation and compared by the use of Student t test (normally distributed) or as median±interquartile range value and compared by the use of Mann-Whitney U test (not normally distributed), as appropriate. Normality of data distribution was evaluated using the Kolmogorov-Smirnov test. Categorical variables were expressed as proportion and compared by use of χ^2 test with risk ratios and 95% confidence intervals quoted. To determine the independent predictors of constipation, logistic regression analysis was performed. Variables achieving p<0.1 on univariate analysis were then included in a multivariate analysis. Statistical significance was accepted at p<0.05. […] Constipation was strongly associated with dopaminergic treatment. On the other hand, only 28/63 (44.4%) patients treated with beta-blockers reported constipation (Table 2).

[2] = tested on: Parkinson's disease patient; test: Case report of one Parkinson's disease patient; format: in vivo, human
Description: Low-dose beta-blocker therapy (carvedilol 6.25 mg BID) was started to treat anxiety avoiding the sedative effect of benzodiazepine.

[3] = tested on: rectum, mid colon and distal colon; conditions: wild type rats, cited from earlier work
[4] = in vivo; cited from earlier work
[5] = current (oral) formulations; cited from earlier work
Parkinson's disease = conditions: in vivo; cited from earlier work

## NC12CC3CC(CC(C3)C1)C2 [Amantadine]
[1]
  OR of constipation, univariate logistic regression: 1.528

## N[C@@H](Cc1ccc(O)c(O)c1)C(=O)O [Levodopa, levodopa]
[2]; Sinemet 25/100 TID added to pramipexole
  motor symptoms: almost complete resolution of motor symptoms
[1]; Betablockers
  Constipation, % of patients: 60.0%
  No Constipation, % of patients: 40.0%
[1]; No Betablockers
  Constipation, % of patients: 71.7%
  No Constipation, % of patients: 28.3%
[1]; multivariate incl. age, gender, PD duration, levodopa, dopamine-agonists, beta-blockers
  OR of constipation, multivariate logistic regression: 2.077
[1]
  OR of constipation, univariate logistic regression: 2.659

## CN1[C@@H]2CC[C@H]1C[C@@H](OC(=O)C(CO)c1ccccc1)C2 (some centres unmarked) [atropine]
[3]
  contractions induced by vagus nerve and pelvic nerve stimulation: abolished

## CC(C)NCC(O)COc1ccc(CCOCC2CC2)cc1 (centres unmarked) [betaxolol]
[4]
  passage of the blood-brain barrier: pass the blood-brain barrier

## CC(C)NCC(O)COc1ccc(COCCOC(C)C)cc1 (centres unmarked) [bisopropolol]
[4]
  passage of the blood-brain barrier: pass the blood-brain barrier

## Cc1cc2c(OCC(CNC(C)(C)C)OC(=O)c3ccccc3)cccc2[nH]1 (centres unmarked) [bopindolol]
[4]
  passage of the blood-brain barrier: pass the blood-brain barrier

## COc1ccccc1OCCNCC(O)COc1cccc2[nH]c3ccccc3c12 (centres unmarked) [carvedilol]
[2]; 6.25 mg BID
  anxiety, constipation and sleep: improved dramatically
[2]; restarted at the same dose after self-discontinuation
  GI symptoms (abdominal bloating and constipation): virtually immediate resolution
[4]
  passage of the blood-brain barrier: pass the blood-brain barrier
[5]
  absorption: rapid and complete
  average elimination half-life: about 8 hours

## CCC1(c2c[nH]cn2)Cc2ccc(F)cc2C1 (centres unmarked) [fipemazole]
Parkinson's disease
  levodopa-induced dyskinesias: could also be diminished

## c1ccc2c(c1)OCC(C1=NCCN1)O2 (centres unmarked) [idaxozan]
Parkinson's disease
  levodopa-induced dyskinesias: could also be diminished

## CC(C)(C)NCC(O)COc1cccc2c1CC(O)C(O)C2 (centres unmarked) [nadolol]
Parkinson's disease
  resting, postural, and action tremor in Parkinson's disease: can be diminished

## C=CCOc1ccccc1OCC(O)CNC(C)C (centres unmarked) [oxprenolol]
[4]
  passage of the blood-brain barrier: pass the blood-brain barrier

## CCCN[C@H]1CCc2nc(N)sc2C1 [pramipexole]
[2]; doses up to 1.5 mg TID
  tolerability: tolerated well

## CC(C)NCC(O)COc1cccc2ccccc12 (centres unmarked) [propranolol]
Parkinson's disease
  levodopa-induced dyskinesias: could reduce levodopa-induced dyskinesias without worsening Parkinsonism
[4]
  passage of the blood-brain barrier: pass the blood-brain barrier
[3]; rectum, mid colon, distal colon
  relaxations induced by hypogastric nerve stimulation: abolished

## CC(C)(C)NC[C@H](O)COc1nsnc1N1CCOCC1 [timolol]
[4]
  passage of the blood-brain barrier: pass the blood-brain barrier
